Results published in US20030144233A1, “Conformation-activity relationship of apoptosis-inducing phosphodiester oligonucleotides” (priority 2001, published 2003).

tested on: Human Jurkat T cell leukemia cells; assay: Analysis of apoptosis by Annexin V FITC / propidium iodide staining and flow cytometry; format: cell-based; conditions: Jurkat T cells, oligonucleotides at final concentration of 53 μM; Table 1
Experimental: Human Jurkat T cell leukemia cells were obtained from the American Type Culture Collection (Rockville, Md.). The Jurkat T cells were maintained RPMI 1640 medium, supplemented with 10% heat-inactivated (56° C., 30 min) fetal bovine serum (all from Sigma Aldrich, Canada) in an atmosphere of 5% CO2 at 37° C. Cells were seeded at 2×10^5 cells/ml medium in 6-well float-bottomed tissue culture plates and incubated with oligonucleotides at a final concentration of 53 μM.
Apoptosis was measured by staining cells with Annexin V FITC and propidium iodide (PI) (BD Pharmingen, San Diego, Calif. USA) according to the manufacturer's instructions. Flow Cytometry (FCM) determined cellular fluorescence. The FCM and data analysis were carried out using a FACSCalibur instrument (excitation 488 nm, emission 530 nm for Annexin-V and 580 nm for PI) using the program CELLQuest.

Row | Sequence | Apoptosis (%)
1 | CCGTCC | 5
2 | CTGTCT | 14
3 | GGGCGG | 17
4 | GGGGGG | 4
5 | TCGTTC | 9.5

same assay, conditions: Jurkat T cells, oligonucleotides at final concentration of 53 μM; Table 2

Row | Sequence | % apoptosis [%]
6 | AAGTAA | 23
7 | ATGTAT | 37
8 | GGCCGG | 21

same assay, conditions: Jurkat T cells, oligonucleotides at final concentration of 53 μM; Table 3

Row | Sequence | % apoptosis [%]
9 | GGAAGG | 59
10 | GGGTGG | 50
11 | GGTTGG | 66
12 | GTGTGT | 67
13 | TGGTTG | 69
14 | TGTGTG | 66

same assay, conditions: new sequences tested in vitro after prediction; Table 4

Row | Sequence | ACTUAL % OF CELLS IN APOPTOSIS [%]
15 | GGGAG | 73

same assay, conditions: phosphodiester versus phosphorothioate backbone

Row | Sequence | apoptosis-inducing activity [%]
16 | GGGTGG | 50
